Measured values published in publication PMC12337661, “PIEZO1 mechanical insensitivity in generalized lymphatic dysplasia with the potential for pharmacological rescue” (iScience, 2025).

Biological target: T1, WT mPIEZO1 (Mus musculus, UniProt E2JF22)
T1 construct: expressed in transfected cells
Assay: Long substance exposure and hypo-osmolality protocol Ca2+ assay
Format: cell-based
Settings: 10 µM
Method: For intracellular Ca^2+ assays, cells were plated at 80–90% confluence in 96-well plates 24 h prior to recordings (6–8 × 10^4 cells per well). […] Cells were washed with SBS and incubated at room temperature for 20 min prior to recordings. Equal volumes of 2x concentrated compounds were injected to test for acute channel activation. Pre-incubation with compounds occurred during the 20 min prior to recordings. To expose cell membranes to hypo-osmolality, an equal volume of hypotonic SBS (containing only 35 mM NaCl) was injected onto the cells. Measurements were made on a fluorescence plate reader (Flexstation III, Molecular Devices) at room temperature (21 ± 2°C). Fura-2 was excited at 340 nm and 380 nm and emitted light collected at 510 nm, with measurements shown as the change in fluorescence (F) ratio (ΔF340/380).
SI Figure S5: Hypo-osm ol al it y test in the Ca2+ assay, referred to in the main paper
(a) Typical 96-well plate mean ± s.e.m. data for changes in intracellular Ca2+ evoked by hypotonic (35 mM NaCl) or normotonic (135 mM NaCl) medium for WT- or Empty vector-transfected cells in increasing concentrations of Yoda1 as indicated and colour -coded on t he right (representative of n = 3-6 independent experiments). […]

T1 sequence (E2JF22 whole entry): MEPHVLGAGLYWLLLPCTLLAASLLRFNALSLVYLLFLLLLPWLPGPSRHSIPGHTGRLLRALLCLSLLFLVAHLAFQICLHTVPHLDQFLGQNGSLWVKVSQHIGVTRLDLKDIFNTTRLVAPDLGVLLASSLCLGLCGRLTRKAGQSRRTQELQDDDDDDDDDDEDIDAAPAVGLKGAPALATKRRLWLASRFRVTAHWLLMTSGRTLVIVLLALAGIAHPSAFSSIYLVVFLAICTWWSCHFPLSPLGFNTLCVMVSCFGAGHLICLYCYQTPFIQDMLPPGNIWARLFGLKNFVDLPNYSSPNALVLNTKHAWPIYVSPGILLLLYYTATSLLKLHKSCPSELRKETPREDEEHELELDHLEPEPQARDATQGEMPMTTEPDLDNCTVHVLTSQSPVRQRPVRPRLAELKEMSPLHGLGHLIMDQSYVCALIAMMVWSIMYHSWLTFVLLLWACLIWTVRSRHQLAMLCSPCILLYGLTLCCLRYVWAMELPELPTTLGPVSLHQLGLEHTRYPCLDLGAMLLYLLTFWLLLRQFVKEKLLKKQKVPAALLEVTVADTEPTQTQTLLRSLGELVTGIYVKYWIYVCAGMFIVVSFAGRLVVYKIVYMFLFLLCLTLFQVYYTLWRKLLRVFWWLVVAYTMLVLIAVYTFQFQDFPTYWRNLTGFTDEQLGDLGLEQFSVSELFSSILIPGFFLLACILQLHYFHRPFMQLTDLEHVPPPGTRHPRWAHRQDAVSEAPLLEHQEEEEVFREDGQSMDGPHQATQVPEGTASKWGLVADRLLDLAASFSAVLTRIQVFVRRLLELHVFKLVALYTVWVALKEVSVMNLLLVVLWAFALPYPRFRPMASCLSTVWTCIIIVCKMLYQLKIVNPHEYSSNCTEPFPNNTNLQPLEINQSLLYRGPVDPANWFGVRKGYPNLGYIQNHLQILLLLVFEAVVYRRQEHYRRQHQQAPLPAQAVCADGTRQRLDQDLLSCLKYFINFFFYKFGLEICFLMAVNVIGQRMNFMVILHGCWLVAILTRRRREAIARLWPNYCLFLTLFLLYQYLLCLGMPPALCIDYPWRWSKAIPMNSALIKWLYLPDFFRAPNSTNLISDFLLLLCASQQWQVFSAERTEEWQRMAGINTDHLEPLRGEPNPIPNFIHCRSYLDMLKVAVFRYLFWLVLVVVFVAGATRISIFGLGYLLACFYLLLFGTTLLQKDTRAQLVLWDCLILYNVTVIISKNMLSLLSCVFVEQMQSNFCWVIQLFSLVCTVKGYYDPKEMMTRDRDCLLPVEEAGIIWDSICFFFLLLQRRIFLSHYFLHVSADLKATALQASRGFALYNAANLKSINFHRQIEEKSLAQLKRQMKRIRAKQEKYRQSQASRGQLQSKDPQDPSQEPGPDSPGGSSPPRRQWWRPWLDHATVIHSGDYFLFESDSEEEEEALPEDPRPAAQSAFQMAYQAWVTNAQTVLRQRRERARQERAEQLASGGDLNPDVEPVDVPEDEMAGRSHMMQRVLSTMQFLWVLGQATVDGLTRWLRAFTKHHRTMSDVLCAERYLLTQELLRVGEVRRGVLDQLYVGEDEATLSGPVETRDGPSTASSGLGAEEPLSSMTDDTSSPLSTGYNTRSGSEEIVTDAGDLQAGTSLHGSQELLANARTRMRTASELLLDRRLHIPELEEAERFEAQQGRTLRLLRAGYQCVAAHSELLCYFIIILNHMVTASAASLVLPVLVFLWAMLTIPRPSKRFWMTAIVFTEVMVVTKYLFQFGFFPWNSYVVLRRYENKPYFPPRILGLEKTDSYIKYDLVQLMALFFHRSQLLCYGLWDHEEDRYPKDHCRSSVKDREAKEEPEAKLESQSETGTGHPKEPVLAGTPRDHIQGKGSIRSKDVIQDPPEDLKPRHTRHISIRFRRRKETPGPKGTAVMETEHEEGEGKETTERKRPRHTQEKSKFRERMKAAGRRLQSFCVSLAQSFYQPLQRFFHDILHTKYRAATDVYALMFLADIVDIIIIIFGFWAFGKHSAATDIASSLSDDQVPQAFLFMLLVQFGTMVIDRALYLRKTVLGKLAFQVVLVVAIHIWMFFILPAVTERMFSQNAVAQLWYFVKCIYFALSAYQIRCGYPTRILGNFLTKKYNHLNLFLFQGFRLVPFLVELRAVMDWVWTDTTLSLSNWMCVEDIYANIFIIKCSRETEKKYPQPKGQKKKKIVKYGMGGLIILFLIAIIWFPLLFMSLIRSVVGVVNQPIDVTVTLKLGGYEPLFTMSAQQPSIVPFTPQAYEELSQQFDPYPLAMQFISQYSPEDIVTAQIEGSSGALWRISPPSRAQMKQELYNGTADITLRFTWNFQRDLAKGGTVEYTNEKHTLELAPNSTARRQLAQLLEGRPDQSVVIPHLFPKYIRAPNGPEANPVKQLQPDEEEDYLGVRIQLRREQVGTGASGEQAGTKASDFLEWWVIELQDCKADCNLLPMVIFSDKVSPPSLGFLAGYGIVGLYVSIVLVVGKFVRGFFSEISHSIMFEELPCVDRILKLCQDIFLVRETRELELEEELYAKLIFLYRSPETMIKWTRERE

assay interference: caused a fluorescence artefact
Compound: Nc1ccc(-c2nnc(SCc3c(Cl)cccc3Cl)s2)cc1 [KC146, 4-(5-((2,6-dichlorobenzyl)thio)-1,3,4-thiadiazol-2-yl)aniline]
